{
  "source": "the NIST ThermoML archive (doi:10.1021/je034087q)",
  "experiment": "xn = mol fraction of the nth substance listed",
  "details": "323.15 K, Fluid (supercritical or subcritical phases)",
  "note": "Numbers after ± are expanded uncertainties.",
  "data": [
    {"smiles": "CCCCC", "note": "[pentane] + O=C=O", "values": [
      {"measurement": "mass density", "setting": "2770 kPa, x2 = 0.214", "result": "612 ± 4", "unit": "kg/m3"},
      {"measurement": "mass density", "setting": "3730 kPa, x2 = 0.36", "result": "633 ± 4", "unit": "kg/m3"},
      {"measurement": "mass density", "setting": "3800 kPa, x2 = 0.214", "result": "617 ± 4", "unit": "kg/m3"},
      {"measurement": "mass density", "setting": "4510 kPa, x2 = 0.36", "result": "635 ± 4", "unit": "kg/m3"},
      {"measurement": "mass density", "setting": "5380 kPa, x2 = 0.36", "result": "636 ± 4", "unit": "kg/m3"},
      {"measurement": "mass density", "setting": "5920 kPa, x2 = 0.214", "result": "623 ± 4", "unit": "kg/m3"},
      {"measurement": "mass density", "setting": "6240 kPa, x2 = 0.36", "result": "640 ± 4", "unit": "kg/m3"},
      {"measurement": "mass density", "setting": "6870 kPa, x2 = 0.671", "result": "707 ± 4", "unit": "kg/m3"},
      {"measurement": "mass density", "setting": "7170 kPa, x2 = 0.36", "result": "643 ± 4", "unit": "kg/m3"},
      {"measurement": "mass density", "setting": "7390 kPa, x2 = 0.791", "result": "655 ± 4", "unit": "kg/m3"},
      {"measurement": "mass density", "setting": "7500 kPa, x2 = 0.671", "result": "713 ± 4", "unit": "kg/m3"},
      {"measurement": "mass density", "setting": "7530 kPa, x2 = 0.214", "result": "627 ± 4", "unit": "kg/m3"},
      {"measurement": "mass density", "setting": "7770 kPa, x2 = 0.791", "result": "663 ± 4", "unit": "kg/m3"},
      {"measurement": "mass density", "setting": "8020 kPa, x2 = 0.87", "result": "577 ± 4", "unit": "kg/m3"},
      {"measurement": "mass density", "setting": "8150 kPa, x2 = 0.36", "result": "645 ± 4", "unit": "kg/m3"},
      {"measurement": "mass density", "setting": "8150 kPa, x2 = 0.87", "result": "584 ± 4", "unit": "kg/m3"},
      {"measurement": "mass density", "setting": "8220 kPa, x2 = 0.916", "result": "454 ± 3", "unit": "kg/m3"},
      {"measurement": "mass density", "setting": "8230 kPa, x2 = 0.916", "result": "458 ± 3", "unit": "kg/m3"},
      {"measurement": "mass density", "setting": "8240 kPa, x2 = 0.916", "result": "460 ± 3", "unit": "kg/m3"},
      {"measurement": "mass density", "setting": "8240 kPa, x2 = 0.939", "result": "352 ± 2", "unit": "kg/m3"},
      {"measurement": "mass density", "setting": "8260 kPa, x2 = 0.87", "result": "590 ± 4", "unit": "kg/m3"},
      {"measurement": "mass density", "setting": "8270 kPa, x2 = 0.916", "result": "468 ± 3", "unit": "kg/m3"},
      {"measurement": "mass density", "setting": "8270 kPa, x2 = 0.939", "result": "356 ± 2", "unit": "kg/m3"},
      {"measurement": "mass density", "setting": "8280 kPa, x2 = 0.791", "result": "670 ± 4", "unit": "kg/m3"},
      {"measurement": "mass density", "setting": "8290 kPa, x2 = 0.939", "result": "358 ± 2", "unit": "kg/m3"},
      {"measurement": "mass density", "setting": "8310 kPa, x2 = 0.939", "result": "361 ± 2", "unit": "kg/m3"},
      {"measurement": "mass density", "setting": "8320 kPa, x2 = 0.916", "result": "475 ± 3", "unit": "kg/m3"},
      {"measurement": "mass density", "setting": "8330 kPa, x2 = 0.939", "result": "363 ± 2", "unit": "kg/m3"},
      {"measurement": "mass density", "setting": "8370 kPa, x2 = 0.671", "result": "719 ± 4", "unit": "kg/m3"},
      {"measurement": "mass density", "setting": "8370 kPa, x2 = 0.916", "result": "483 ± 3", "unit": "kg/m3"},
      {"measurement": "mass density", "setting": "8380 kPa, x2 = 0.939", "result": "368 ± 2", "unit": "kg/m3"},
      {"measurement": "mass density", "setting": "8390 kPa, x2 = 0.901", "result": "515 ± 3", "unit": "kg/m3"},
      {"measurement": "mass density", "setting": "8410 kPa, x2 = 0.916", "result": "491 ± 3", "unit": "kg/m3"},
      {"measurement": "mass density", "setting": "8420 kPa, x2 = 0.87", "result": "597 ± 4", "unit": "kg/m3"},
      {"measurement": "mass density", "setting": "8420 kPa, x2 = 0.939", "result": "375 ± 2", "unit": "kg/m3"},
      {"measurement": "mass density", "setting": "8430 kPa, x2 = 0.901", "result": "520 ± 3", "unit": "kg/m3"},
      {"measurement": "mass density", "setting": "8450 kPa, x2 = 0.916", "result": "499 ± 3", "unit": "kg/m3"},
      {"measurement": "mass density", "setting": "8460 kPa, x2 = 0.901", "result": "524 ± 3", "unit": "kg/m3"},
      {"measurement": "mass density", "setting": "8460 kPa, x2 = 0.939", "result": "380 ± 2", "unit": "kg/m3"},
      {"measurement": "mass density", "setting": "8500 kPa, x2 = 0.901", "result": "529 ± 3", "unit": "kg/m3"},
      {"measurement": "mass density", "setting": "8500 kPa, x2 = 0.916", "result": "508 ± 3", "unit": "kg/m3"},
      {"measurement": "mass density", "setting": "8500 kPa, x2 = 0.939", "result": "386 ± 2", "unit": "kg/m3"},
      {"measurement": "mass density", "setting": "8530 kPa, x2 = 0.901", "result": "533 ± 3", "unit": "kg/m3"},
      {"measurement": "mass density", "setting": "8540 kPa, x2 = 0.939", "result": "393 ± 2", "unit": "kg/m3"},
      {"measurement": "mass density", "setting": "8550 kPa, x2 = 0.87", "result": "602 ± 4", "unit": "kg/m3"},
      {"measurement": "mass density", "setting": "8570 kPa, x2 = 0.901", "result": "538 ± 3", "unit": "kg/m3"},
      {"measurement": "mass density", "setting": "8570 kPa, x2 = 0.916", "result": "517 ± 3", "unit": "kg/m3"},
      {"measurement": "mass density", "setting": "8570 kPa, x2 = 0.939", "result": "399 ± 3", "unit": "kg/m3"},
      {"measurement": "mass density", "setting": "8620 kPa, x2 = 0.901", "result": "542 ± 3", "unit": "kg/m3"},
      {"measurement": "mass density", "setting": "8620 kPa, x2 = 0.939", "result": "406 ± 3", "unit": "kg/m3"},
      {"measurement": "mass density", "setting": "8650 kPa, x2 = 0.916", "result": "527 ± 3", "unit": "kg/m3"},
      {"measurement": "mass density", "setting": "8660 kPa, x2 = 0.939", "result": "413 ± 3", "unit": "kg/m3"},
      {"measurement": "mass density", "setting": "8670 kPa, x2 = 0.901", "result": "548 ± 3", "unit": "kg/m3"},
      {"measurement": "mass density", "setting": "8700 kPa, x2 = 0.939", "result": "420 ± 3", "unit": "kg/m3"},
      {"measurement": "mass density", "setting": "8710 kPa, x2 = 0.87", "result": "610 ± 4", "unit": "kg/m3"},
      {"measurement": "mass density", "setting": "8710 kPa, x2 = 0.901", "result": "552 ± 3", "unit": "kg/m3"},
      {"measurement": "mass density", "setting": "8710 kPa, x2 = 0.916", "result": "536 ± 3", "unit": "kg/m3"},
      {"measurement": "mass density", "setting": "8740 kPa, x2 = 0.939", "result": "428 ± 3", "unit": "kg/m3"},
      {"measurement": "mass density", "setting": "8760 kPa, x2 = 0.901", "result": "558 ± 4", "unit": "kg/m3"},
      {"measurement": "mass density", "setting": "8810 kPa, x2 = 0.916", "result": "546 ± 3", "unit": "kg/m3"},
      {"measurement": "mass density", "setting": "8810 kPa, x2 = 0.939", "result": "436 ± 3", "unit": "kg/m3"},
      {"measurement": "mass density", "setting": "8830 kPa, x2 = 0.901", "result": "562 ± 4", "unit": "kg/m3"},
      {"measurement": "mass density", "setting": "8850 kPa, x2 = 0.939", "result": "444 ± 3", "unit": "kg/m3"},
      {"measurement": "mass density", "setting": "8860 kPa, x2 = 0.791", "result": "681 ± 4", "unit": "kg/m3"},
      {"measurement": "mass density", "setting": "8890 kPa, x2 = 0.901", "result": "568 ± 4", "unit": "kg/m3"},
      {"measurement": "mass density", "setting": "8890 kPa, x2 = 0.939", "result": "453 ± 3", "unit": "kg/m3"},
      {"measurement": "mass density", "setting": "8920 kPa, x2 = 0.87", "result": "619 ± 4", "unit": "kg/m3"},
      {"measurement": "mass density", "setting": "8930 kPa, x2 = 0.916", "result": "556 ± 3", "unit": "kg/m3"},
      {"measurement": "mass density", "setting": "8950 kPa, x2 = 0.939", "result": "461 ± 3", "unit": "kg/m3"},
      {"measurement": "mass density", "setting": "8980 kPa, x2 = 0.901", "result": "573 ± 4", "unit": "kg/m3"},
      {"measurement": "mass density", "setting": "9010 kPa, x2 = 0.939", "result": "470 ± 3", "unit": "kg/m3"},
      {"measurement": "mass density", "setting": "9050 kPa, x2 = 0.901", "result": "579 ± 4", "unit": "kg/m3"},
      {"measurement": "mass density", "setting": "9070 kPa, x2 = 0.916", "result": "568 ± 4", "unit": "kg/m3"},
      {"measurement": "mass density", "setting": "9070 kPa, x2 = 0.939", "result": "479 ± 3", "unit": "kg/m3"},
      {"measurement": "mass density", "setting": "9120 kPa, x2 = 0.87", "result": "624 ± 4", "unit": "kg/m3"},
      {"measurement": "mass density", "setting": "9140 kPa, x2 = 0.901", "result": "583 ± 4", "unit": "kg/m3"},
      {"measurement": "mass density", "setting": "9140 kPa, x2 = 0.939", "result": "489 ± 3", "unit": "kg/m3"},
      {"measurement": "mass density", "setting": "9210 kPa, x2 = 0.939", "result": "500 ± 3", "unit": "kg/m3"},
      {"measurement": "mass density", "setting": "9230 kPa, x2 = 0.901", "result": "590 ± 4", "unit": "kg/m3"},
      {"measurement": "mass density", "setting": "9240 kPa, x2 = 0.916", "result": "579 ± 4", "unit": "kg/m3"},
      {"measurement": "mass density", "setting": "9280 kPa, x2 = 0.36", "result": "647 ± 4", "unit": "kg/m3"},
      {"measurement": "mass density", "setting": "9300 kPa, x2 = 0.939", "result": "511 ± 3", "unit": "kg/m3"},
      {"measurement": "mass density", "setting": "9350 kPa, x2 = 0.901", "result": "595 ± 4", "unit": "kg/m3"}
    ]}
  ]
}
